Measured values as given in patent publication US5530019A, “Indole derivatives useful as testosterone 5α-reductase inhibitors” (Fujisawa Pharmaceutical Co., Ltd., priority 1993, dated 1996).

Target: T1, testosterone 5α-reductase (Rattus norvegicus, UniProt P31214)
T1 construct: The prostates were drained, minced, and then homogenized in 3 -4 tissue volumes of medium A; from tissue; host or cells: ventral prostate of mature male Sprague-Dawley rats, resuspended 3,000 g pellet
T1 sequence (P31214 1-254): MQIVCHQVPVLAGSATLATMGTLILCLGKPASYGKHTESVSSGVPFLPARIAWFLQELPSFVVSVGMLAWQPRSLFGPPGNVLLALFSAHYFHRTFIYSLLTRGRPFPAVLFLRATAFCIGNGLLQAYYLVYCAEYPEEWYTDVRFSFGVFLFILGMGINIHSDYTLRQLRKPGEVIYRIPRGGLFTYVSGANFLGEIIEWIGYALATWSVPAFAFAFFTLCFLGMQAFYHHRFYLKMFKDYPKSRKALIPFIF
Assay: Inhibitory activity on testosterone 5α-reductase in rats (rat ventral prostate suspension, 3H-testosterone)
Format: biochemical, rat (Spraque-Dawley male rats)
Details: rat prostatic 5α-reductase; 2.2×10^-9 M testosterone, 50 μM NADPH, pH 6.5, 37° C., 30 minutes
Excerpt: [2]Inhibitory activity on testosterone 5α-reductase in rats:
1,2,6,7-^3 H-testosterone (85-105 Ci/mmol) is a mixture of 1,2,6,7-3H-testosterone and testosterone which includes 85-105 Ci of 1,2,6,7-^3 H-testosterone per mmol of testosterone and is purchased from New England Nuclear, Boston, Mass., U.S.A.
Aquazol-2 (Aquazol-2 Universal LSC Cocktail) trademark, purchased from New England Nuclear, Boston, Mass., U.S.A. ii) Preparation of prostatic testosterone 5α-reductase
Mature Spraque-Dawley male rats (7-8 weeks old) were sacrificed by diethyl ether. The ventral prostates were dissected to be free of their capsules and their combined volume was measured by displacement in several milliliters of ice-cold medium A (0.32M sucrose, 0.1 mM dithiothreitol and 20 mM sodium phosphate, pH 6.5). Unless specified, all the following procedures were carried out at 0 -4. The prostates were drained, minced, and then homogenized in 3 -4 tissue volumes of medium A with Pyrex-glass homogenizer. […]
The reaction solution contains 1 mM dithiothreitol, 40 mM sodium phosphate pH 6.5, 50 μM NADPH, 1,2,6,7-^3 H-testosterone/testosterone (2.2×10^-9 M) and the suspension prepared above ([…]) in a total volume of 565 μl. […] The radioactivity was determined in 5 ml of Aquazol-2 in Packard scintillation counter (PACKARD TRI-CARB 4530), and an inhibitory ratio was calculated.

CCCCCCCCCCC(=O)c1cn(CCCC(=O)O)c2ccccc12 [(1), 4-(3-Undecanoyl-1-indolyl)butyric acid]
IC50: 0.44 nM
